Experimental findings from PubChem BioAssay (NCI) are described below.

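1) Cells in 96-well plates. 2) Compound, 48 h, 5 concentrations. 3) Linear interpolation between surrounding doses. 4) Unreached endpoint = highest concentration. Abbreviation: GI50, concentration required for 50% inhibition of growth. TGI: total growth inhibition.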

Common to all, as to test: NCI tumour cell line growth inhibition, 48 h
Experiment [1] has as its system DMS 114 small cell lung.
Experiment [2] deals with SNB-78 CNS.
Experiment [3] has as its system DLD-1 colon.
The subject of experiment [4] is DMS 273 small cell lung.
In experiment [5] the test system is HOP-18 NSCLC.
Experiment [6] deals with XF 498 CNS.
Experiment [7] concerns RXF-631 renal.
Experiment [8] has as its system P388/ADR leukemia.
In experiment [9] the test system is SN12K1 renal.
In experiment [10] the test system is P388 leukemia.

Regarding `CC(C)n1c2c([n+](C)c1/C=C/c1ccccc1)C(=O)c1ccccc1C2=O`, the TGI was found to be 0.0439 µM in experiment [1], 0.413 µM in experiment [2], 3.79 µM in experiment [3] and 0.341 µM in experiment [4].
`COc1ccc([C@H]2CC(=O)NCCCCN2)cc1`: the TGI in [5], in experiment [6], in experiment [1], in [2], in [3] and in [4] was above 100 µM in each case.
Regarding `CC(=O)O[C@H]1C(=O)[C@@]2(C)C(C(OC(=O)c3ccccc3)[C@]3(O)CC(OC(=O)C(O)C(NC(=O)c4ccc(C)cc4)c4ccccc4)C(C)=C1C3(C)C)[C@]1(OC(C)=O)CO[C@@H]1C[C@@H]2O` (stereo partly specified), the TGI in experiment [6] is 0.0201 µM; in experiment [1], below 0.0025 µM; in [2], above 25 µM; in [3], 15.4 µM; in experiment [4], 3.25 µM.
With `O=C(O)CC/C(=N\Nc1nsc2ccccc12)c1ccc(Cl)cc1`, the TGI in [5] was 52 µM; in experiment [1], above 100 µM; in experiment [2], above 100 µM; in [4], 41.2 µM.
For `COC(=O)[C@]1(C)CCC[C@@]2(C)C1CCC1=CC3(C(C)C)CCC12OO3` (stereo partly specified), the TGI in [2], in experiment [3] and in experiment [7] was above 100 µM throughout.
For the compound `O=[N+]([O-])O.[Ga]`, the GI50 was 712 µM in [8]; 1210 µM in experiment [9]; 1680 µM in experiment [10]; 5210 µM in [5]; above 4220 µM in experiment [2]; 3500 µM in experiment [3]. Also, the GI50 in experiment [4] is 470 µM. In addition, the TGI in [8] is above 3030 µM; in experiment [9] it was 6000 µM; in experiment [10], above 10000 µM; in [5] it was above 9360 µM; in experiment [2], above 4980 µM; in experiment [3] it was above 10000 µM. The compound further registered a TGI in experiment [4] of 6900 µM.
Turning to `COc1ccc2c(c1)OC[C@@H]1c3cc4c(cc3O[C@H]21)OCO4`, the TGI in experiment [5], in experiment [6], in experiment [1], in [2], in experiment [3] and in experiment [4] was above 100 µM throughout.
On to `COP1(=O)Oc2ccccc2C(=O)C(C(F)(F)F)(C(F)(F)F)O1` (stereo unspecified), for which the TGI in [6], in [1], in experiment [3] and in experiment [4] was above 100 µM in each case.
As to `CC(C)OP(=O)(OC(C)C)C(=Nc1ccccc1)NNc1ccc([N+](=O)[O-])cc1`, the TGI in [6] was 61 µM; in [1], 69.5 µM; in [2] it was 43.1 µM; in experiment [3], above 100 µM; in [4] it was 59 µM.
